Measurements reported in PubChem BioAssay AID1963965 (Molecular Pharmacology Branch, DTP, NCI, 2024).
Values belong to the compound of their own block, whether it stands above or below them.

Tested on: 996289-038-R-J1-PDC spheroid viability
Assay: Anticancer human tumor 996289-038-R-J1-PDC patient-derived colon adenocarcinoma cell line growth inhibition [PI3K]
Details: spheroids with HUVEC and MSC; for IC50: curve of first compound; for viability, T/C: stronger effect = lower value
Summary of the method: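 Tumor cells grown as multi-cell spheroids with HUVEC endothelial cells and MSC fibroblast-like stroma were treated with targeted agents combined with inavolisib, alpelisib, duvelisib or copanlisib. Doses fell in half-log steps from near clinical Cmax, else from 10 microM. Viability was measured.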

[1] = second compound 0.0316 µM, first compound 0.0316 µM
[2] = second compound 0.0316 µM, first compound 0.1 µM
[3] = second compound 0.0316 µM, first compound 0.316 µM
[4] = second compound 0.0316 µM, first compound 1 µM
[5] = second compound 0.1 µM, first compound 0.0316 µM
[6] = second compound 0.1 µM, first compound 0.1 µM
[7] = second compound 0.1 µM, first compound 0.316 µM
[8] = second compound 0.1 µM, first compound 1 µM
[9] = second compound 0.316 µM, first compound 0.0316 µM
[10] = second compound 0.316 µM, first compound 0.1 µM
[11] = second compound 0.316 µM, first compound 0.316 µM
[12] = second compound 0.316 µM, first compound 1 µM
[13] = second compound 1 µM, first compound 0.0316 µM
[14] = second compound 1 µM, first compound 0.1 µM
[15] = second compound 1 µM, first compound 0.316 µM
[16] = second compound 1 µM, first compound 1 µM
[17] = second compound 3.16 µM, first compound 0.0316 µM
[18] = second compound 3.16 µM, first compound 0.1 µM
[19] = second compound 3.16 µM, first compound 0.316 µM
[20] = second compound 3.16 µM, first compound 1 µM
[21] = second compound 10 µM, first compound 0.0316 µM
[22] = second compound 10 µM, first compound 0.1 µM
[23] = second compound 10 µM, first compound 0.316 µM
[24] = second compound 10 µM, first compound 1 µM
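Further: spheroids exposed to compounds for seven days before viability read.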
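Wherever viability, T/C is given: luminescence used as a proxy for viable cell amount; percent viability relative to DMSO vehicle control as 100%.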

- IC50 (second compound 0.0316 µM): > 10 µM
- IC50 (second compound 0.1 µM): > 10 µM
- IC50 (second compound 0.316 µM): > 10 µM
- IC50 (second compound 1 µM): > 10 µM
- IC50 (second compound 3.16 µM): > 10 µM
- IC50 (second compound 10 µM): > 10 µM
Structure (SMILES): CC(C)NCC(C(=O)N1CCN(c2ncnc3c2C(C)CC3O)CC1)c1ccc(Cl)cc1 (centres undefined) + CC(Nc1ncnc2nc[nH]c12)c1cc2cccc(Cl)c2c(=O)n1-c1ccccc1
- viability, T/C [1]: 86.1%
- viability, T/C [2]: 80.3%
- viability, T/C [3]: 100%
- viability, T/C [4]: 94.1%
- viability, T/C (second compound 0.0316 µM, first compound 3.16 µM): 87.4%
- viability, T/C (second compound 0.0316 µM, first compound 10 µM): 75.1%
- viability, T/C [5]: 96.5%
- viability, T/C [6]: 96.8%
- viability, T/C [7]: 89.9%
- viability, T/C [8]: 94.7%
- viability, T/C (second compound 0.1 µM, first compound 3.16 µM): 87.1%
- viability, T/C (second compound 0.1 µM, first compound 10 µM): 69.4%
- viability, T/C [9]: 94.9%
- viability, T/C [10]: 93.8%
- viability, T/C [11]: 95.2%
- viability, T/C [12]: 90%
- viability, T/C (second compound 0.316 µM, first compound 3.16 µM): 92.2%
- viability, T/C (second compound 0.316 µM, first compound 10 µM): 72.3%
- viability, T/C [13]: 86.4%
- viability, T/C [14]: 92.3%
- viability, T/C [15]: 90.8%
- viability, T/C [16]: 77.8%
- viability, T/C (second compound 1 µM, first compound 3.16 µM): 101%
- viability, T/C (second compound 1 µM, first compound 10 µM): 74.9%
- viability, T/C [17]: 88.1%
- viability, T/C [18]: 85%
- viability, T/C [19]: 85.4%
- viability, T/C [20]: 94.7%
- viability, T/C (second compound 3.16 µM, first compound 3.16 µM): 94.9%
- viability, T/C (second compound 3.16 µM, first compound 10 µM): 68.6%
- viability, T/C [21]: 88.8%
- viability, T/C [22]: 78.7%
- viability, T/C [23]: 85.5%
- viability, T/C [24]: 84.2%
- viability, T/C (second compound 10 µM, first compound 3.16 µM): 101%
- viability, T/C (second compound 10 µM, first compound 10 µM): 56.2%

- IC50 (second compound 0.0316 µM): > 1 µM
- IC50 (second compound 0.1 µM): > 1 µM
- IC50 (second compound 0.316 µM): > 1 µM
- IC50 (second compound 1 µM): > 1 µM
- IC50 (second compound 3.16 µM): > 1 µM
- IC50 (second compound 10 µM): > 1 µM
Structure (SMILES): CCN1CCN(Cc2ccc(Nc3ncc(F)c(-c4cc(F)c5nc(C)n(C(C)C)c5c4)n3)nc2)CC1 + CC(Nc1ncnc2nc[nH]c12)c1cc2cccc(Cl)c2c(=O)n1-c1ccccc1
- viability, T/C (second compound 0.0316 µM, first compound 0.00316 µM): 111%
- viability, T/C (second compound 0.0316 µM, first compound 0.01 µM): 94.2%
- viability, T/C [1]: 92.2%
- viability, T/C [2]: 87.1%
- viability, T/C [3]: 79%
- viability, T/C [4]: 74.1%
- viability, T/C (second compound 0.1 µM, first compound 0.00316 µM): 102%
- viability, T/C (second compound 0.1 µM, first compound 0.01 µM): 96.4%
- viability, T/C [5]: 91.8%
- viability, T/C [6]: 86.7%
- viability, T/C [7]: 76.7%
- viability, T/C [8]: 80%
- viability, T/C (second compound 0.316 µM, first compound 0.00316 µM): 96.2%
- viability, T/C (second compound 0.316 µM, first compound 0.01 µM): 93.7%
- viability, T/C [9]: 89.1%
- viability, T/C [10]: 80.3%
- viability, T/C [11]: 75%
- viability, T/C [12]: 80.4%
- viability, T/C (second compound 1 µM, first compound 0.00316 µM): 104%
- viability, T/C (second compound 1 µM, first compound 0.01 µM): 88.5%
- viability, T/C [13]: 86%
- viability, T/C [14]: 79.8%
- viability, T/C [15]: 76.8%
- viability, T/C [16]: 70.7%
- viability, T/C (second compound 3.16 µM, first compound 0.00316 µM): 98.1%
- viability, T/C (second compound 3.16 µM, first compound 0.01 µM): 105%
- viability, T/C [17]: 79.4%
- viability, T/C [18]: 86.6%
- viability, T/C [19]: 81%
- viability, T/C [20]: 68.8%
- viability, T/C (second compound 10 µM, first compound 0.00316 µM): 82%
- viability, T/C (second compound 10 µM, first compound 0.01 µM): 76%
- viability, T/C [21]: 82.4%
- viability, T/C [22]: 74.3%
- viability, T/C [23]: 71%
- viability, T/C [24]: 58.6%
